This is an account of results in article PMC10759609, “A novel PDPN antagonist peptide CY12-RP2 inhibits melanoma growth via Wnt/β-catenin and modulates the immune cells” (Journal of Experimental & Clinical Cancer Research : CR, 2024).

The test system of assay [1] is A875 cells. Put plainly: Annexin V/PI flow cytometry apoptosis, A875. It counts as cell-based. The following applies: 0, 50, 100, 200 μM, 48 h. On the procedure: In this study, cell apoptosis was analyzed by flow cytometry using a PI/FITC-Annexin V Apoptosis Detection Kit (4A Biotech, Beijing, China). Briefly, melanoma cells were collected and washed with pre-chilled PBS, then resuspended with Annexin V staining buffer. Afterward, fluorescein isothiocyanate (FITC)-Annexin V and PI were stained for 5 min at RT, and then immediately detected using a Beckman flow cytometer. To investigate immune cell infiltration of the lung and spleen in the pulmonary metastasis mouse model, the surface and nuclear antigen staining were performed following the experimental procedure. Fluorescence-labeled mAb against CD3, CD25, CD49b, GranzymeB, CD11b, CD86, and CD206 were purchased from BioLegend (BioLegend, San Diego, CA), and CD4, CD8, and Foxp3 from Tonbo. […] Finally, the samples were measured using flow cytometry.
Fig. 3 Biopanning of PDPN antagonist peptides. […] B Immunofluorescence staining was performed to quantify the colocalization of CY12-RP2 and PDPN protein in melanoma cell lines (A375, A875). […] D Suppression efficiency of melanoma cells growth by CY12-RP2 was measured by CCK8 assay at various concentrations for 24, 48 or 72 h, respectively. […] G, H The 3D cellular spheres were treated with the set concentrations of CY12-RP2 for 5 days and cell morphology was assessed (G), relative spheroid diameter was measured (H). […]
For orientation: In flow cytometry, cells or beads pass a laser one at a time.

Assay [2] has as its system immune cells in spleen and lung. Description: Flow cytometry of immune cells, spleen and lung, lung metastasis model. It counts as in vivo, BALB/c mice. The following applies: lungs and spleens. The method, then: In this study, cell apoptosis was analyzed by flow cytometry using a PI/FITC-Annexin V Apoptosis Detection Kit (4A Biotech, Beijing, China). Briefly, melanoma cells were collected and washed with pre-chilled PBS, then resuspended with Annexin V staining buffer. Afterward, fluorescein isothiocyanate (FITC)-Annexin V and PI were stained for 5 min at RT, and then immediately detected using a Beckman flow cytometer. To investigate immune cell infiltration of the lung and spleen in the pulmonary metastasis mouse model, the surface and nuclear antigen staining were performed following the experimental procedure. Fluorescence-labeled mAb against CD3, CD25, CD49b, GranzymeB, CD11b, CD86, and CD206 were purchased from BioLegend (BioLegend, San Diego, CA), and CD4, CD8, and Foxp3 from Tonbo. Surface markers, including CD3, CD4, CD8, CD25, CD49b, GranzymeB, CD11b, CD86 and CD206, were firstly stained, then fixed, permeabilized, and stained for the intranuclear marker Foxp3, respectively. Finally, the samples were measured using flow cytometry.
For pulmonary metastasis assays, 6- to 8-week-old female BALB/c mice were administered with 5 × 10^5 B16F10-Luc cells via tail vein to establish an experimental pulmonary metastasis model of melanoma. CY12-RP2 was administered to the mice intravenously at high and low doses (25 mg/kg and 100 mg/kg) every two days, and the mice were sacrificed after 15 days of treatment. Pulmonary metastases were evaluated using bioluminescence imaging on the 2nd, 5th, 10th, 15th and 20th day after B16F10-Luc cells injection. Subsequently, the BALB/c mice were sacrificed, and the organs including the heart, liver, spleen, lung, and kidney were collected and imaged for evaluation of micrometastases. The xenografts and organs were kept in a 4% paraformaldehyde solution for subsequent histological assays.

The subject of assay [3] is B16F10-Luc melanoma allograft. Format: in vivo, BALB/c mice; murine melanoma cell line. Conditions: 100 mg/kg, tail vein, every other day for 15 days. On the procedure:
Tumorigenesis assays were conducted in vivo using BALB/c nude mice and BALB/c mice from Guangdong Medical Laboratory Animal Center. The animal study was reviewed and approved by the Administrative Committee on Animal Research of Shenzhen International Graduate School, Tsinghua University (Ethical Development No. 16, 10 November 2021). Samples with 5 × 10^5 A375 or B16F10-Luc melanoma cells were diluted in 100 μL PBS and injected subcutaneously into 6- to 8-week-old female BALB/c nude mice or BALB/c mice. 5 days later, the mice were treated with CY12-RP2 by tail vein administration at various doses (25 mg/kg and 100 mg/kg) every two days. The tumor volume and body weight were measured every 2 days, with the calculation of the tumor volume under the assumption of an ellipsoidal tumor as: tumor volume = length × width^2/2. Tumors from BALB/c nude mice were collected and photographed on day 21, while tumors from the allograft mouse model were measured using bioluminescence imaging. The blood collected from the eyes of BALB/c nude mice were stored at 4 °C for 24 h and then centrifuged for 15 min under the indicated conditions (4 °C, 3000 rpm). The supernatant was collected and assayed for drug toxicity using kits, including AST, ALT, TG, and γ-GT. […]

Assay [4] concerns A875 cells. Description: Colony formation, A875. It counts as cell-based.
In a further assay the test system is PBMC. Description: PBMC cytokines by ELISA. Format: cell-based, healthy donor. The following applies: 50 µM, 48 h. The method, then: PBMCs (Shenzhen People's Hospital. Shenzhen, China)) from a healthy donor were isolated using a density gradient centrifugation procedure. Firstly, the immune cell proportions analysis of PBMCs was measured using flow cytometry. We then investigated the effect of CY12-RP2 on the cytokines in PBMCs using ELISA assays. Briefly, PBMCs (5 × 10^5 cells/well) were cultured in 24-well plates with RPMI1640 containing 10% FBS for 24 h, and the cells were stimulated with CY12-RP2 (50 µM) for 48 h. Afterward, supernatants were collected for subsequent assays. […] The experimental results were then observed by crystal violet staining after 48 h. The levels of major inflammatory cytokines, including TNF-α, IL-1β, IL-2, TGF-β, IFN-γ, and IL-10, were measured using an ELISA kit (Shenzhen Ziker Biological Technology, Shenzen, China). Briefly, culture supernatants of cells and serum of pulmonary metastasis mouse model were respectively collected and added to an antibody pre-coated 96-well plates, and then followed up according to the manufacturer's instructions.
(In general: In an ELISA, binding on a coated surface is turned into a signal by an enzyme label.)

Peptide text beside a SMILES is read from it.

With `CC(C)C[C@H](NC(=O)[C@H](Cc1ccc(O)cc1)NC(=O)[C@@H](N)[C@@H](C)O)C(=O)N[C@@H](CS)C(=O)N[C@H](C(=O)N[C@@H](C)C(=O)N[C@@H](CS)C(=O)N[C@@H](CC(=O)O)C(=O)N[C@@H](Cc1ccc(O)cc1)C(=O)N[C@H](C(=O)N[C@@H](Cc1c[nH]cn1)C(=O)N[C@@H](Cc1c[nH]cn1)C(=O)O)[C@@H](C)O)[C@@H](C)O` [CY12-RP2] (H-TYLCTACDYTHH-OH; N-terminus and C-terminus assumed), the apoptosis rate entry in the assay with A875 cells [1] is “milder”. Also, in assay [2], the “CD3 + CD4 + T cells ratio to total T cells” value is “significantly increased”, the “CD3 + CD8 + T cells ratio to total T cells” value is “significantly increased”, the “CD4 + CD25 + Foxp3 + Treg cells” value is reported as “significantly diminished” and the “CD11b + CD86 + M1-like macrophages proportion” value was “significantly increased”. Also, in assay [2], the “CD11b + CD206 + M2-like macrophages proportion” value was “decreased” and the “CD49b + Granzyme B + NK cells proportion” value is listed as “significantly increased”. The tumor volume entry in assay [3] is “noticeably decreased”. In addition, the “tumor growth (bioluminescence imaging)” value in assay [3] (vs control) is given as “significantly decreased tumor growth”. The colony formation result with A875 cells [4] is “only having inhibitory effects on A875 cells at high concentrations”. Also, in the assay with PBMC, the “IFN-γ level in PBMC supernatant” value is reported as “increased”, the “IL-1β level in PBMC supernatant” value is reported as “increased”, the “IL-10 level in PBMC supernatant” value was “decreased” and the “TGF-β level in PBMC supernatant” value is on record as “decreased”. The “TNF-α level in PBMC supernatant” value in the assay with PBMC is on record as “increased”.
